Patent US10507193B2, “Ultra low dose doxepin and methods of using the same to treat sleep disorders” (Pernix Sleep, Inc., priority 2006, dated 2019)

Tests used:
Assay type in all cases: in vivo, human
[1] = test system: patient suffering from transient or short term insomnia; assay: Patient with transient or short term insomnia prescribed ultra low dose doxepin prior to bedtime
Excerpt: A patient suffers from transient or short term insomnia. The patient is otherwise healthy with normal affect with no depression, anxiety or substance overuse. The patient is prescribed doxepin in a daily dosage of 0.4 milligrams, prior to bedtime. […] A patient suffers from transient or short term insomnia. The patient is otherwise healthy with normal affect with no depression, anxiety or substance overuse. The patient is prescribed doxepin in a daily dosage of 0.08 milligrams, prior to bedtime. […] A patient suffers from transient or short term insomnia. The patient is otherwise healthy with normal affect with no depression, anxiety or substance overuse. The patient is prescribed doxepin in a daily dosage of 0.009 milligrams, prior to bedtime. […] A patient suffers from transient or short term insomnia. The patient is otherwise healthy with normal affect with no depression, anxiety or substance overuse. The patient is prescribed doxepin in a daily dosage of 0.0005 milligrams prior to bedtime. […] A patient suffers from transient or short term insomnia. The patient also suffers from depression. The patient is prescribed doxepin in a daily dosage of 0.3 milligrams, prior to bedtime. […] A patient suffers from transient or short term insomnia. The patient also suffers from depression. The patient is prescribed doxepin in a daily dosage of 0.1 milligrams, prior to bedtime. […] A patient suffers from transient or short term insomnia. The patient also suffers from depression. The patient is prescribed doxepin in a daily dosage of 0.006 milligrams, prior to bedtime. […] A patient suffers from transient or short term insomnia. The patient is otherwise healthy with normal affect with no depression, anxiety or substance overuse. The patient is prescribed doxepin in a daily dosage of 0.008 milligrams, prior to bedtime. […] A patient suffers from transient or short term insomnia. The patient also suffers from depression. The patient is prescribed doxepin in a daily dosage of 0.001 milligrams, prior to bedtime. […] A patient suffers from transient or short term insomnia. The patient also suffers from depression. The patient is prescribed doxepin in a daily dosage of 0.0003 milligrams prior to bedtime.

[2] = test system: patient suffering from chronic insomnia; assay: Patient with chronic insomnia prescribed ultra low dose doxepin prior to bedtime
Excerpt: A patient suffers from chronic insomnia. The patient is otherwise healthy with normal affect with no depression, anxiety or substance overuse. The patient is prescribed doxepin in a daily dosage of 0.4 milligrams prior to bedtime. […] A patient suffers from chronic insomnia. The patient is otherwise healthy with normal affect with no depression, anxiety or substance overuse. The patient is prescribed doxepin in a daily dosage of 0.2 milligrams prior to bedtime. […] A patient suffers from chronic insomnia. The patient is otherwise healthy with normal affect with no depression, anxiety or substance overuse. The patient is prescribed doxepin in a daily dosage of 0.02 milligrams prior to bedtime. […] A patient suffers from chronic insomnia. The patient is otherwise healthy with normal affect with no depression, anxiety or substance overuse. The patient is prescribed doxepin in a daily dosage of 0.007 milligrams prior to bedtime. […] A patient suffers from chronic insomnia. The patient is otherwise healthy with normal affect with no depression, anxiety or substance overuse. The patient is prescribed doxepin in a daily dosage of 0.009 milligrams prior to bedtime. […] A patient suffers from chronic insomnia. The patient is otherwise healthy with normal affect with no depression, anxiety or substance overuse. The patient is prescribed doxepin in a daily dosage of 0.0002 milligrams prior to bedtime. […] A patient suffers from chronic insomnia. The patient also suffers from depression. The patient is prescribed doxepin in a daily dosage of 0.5 milligram prior to bedtime. […] A patient suffers from chronic insomnia. The patient also suffers from depression. The patient is prescribed doxepin in a daily dosage of 0.03 milligrams prior to bedtime. […] A patient suffers from chronic insomnia. The patient also suffers from depression. The patient is prescribed doxepin in a daily dosage of 0.05 milligrams prior to bedtime. […] A patient suffers from chronic insomnia. The patient also suffers from depression. The patient is prescribed doxepin in a daily dosage of 0.004 milligrams prior to bedtime. […] A patient suffers from chronic insomnia. The patient also suffers from depression. The patient is prescribed doxepin in a daily dosage of 0.0001 milligrams prior to bedtime. […] A patient suffers from chronic insomnia. The patient also suffers from depression. The patient is prescribed doxepin in a daily dosage of 0.0009 milligrams prior to bedtime.

[3] = test system: patient suffering from a sleep disorder; assay: Patient with a sleep disorder prescribed ultra low dose doxepin, salt or prodrug prior to bedtime; details: daily dosage 0.1 milligram prior to bedtime
Excerpt: A patient suffers from a sleep disorder. The patient is prescribed doxepin in a daily dosage of 0.1 milligram prior to bedtime. […] A patient suffers from a sleep disorder. The patient is prescribed a pharmaceutically acceptable salt of doxepin in a daily dosage of 0.3 milligrams prior to bedtime. […] A patient suffers from a sleep disorder. The patient is prescribed a pharmaceutically acceptable salt of doxepin in a daily dosage of 0.009 milligrams prior to bedtime. […] A patient suffers from a sleep disorder. The patient is prescribed a pharmaceutically acceptable salt of doxepin in a daily dosage of 0.006 milligrams prior to bedtime. […] A patient suffers from a sleep disorder. The patient is prescribed a pharmaceutically acceptable salt of doxepin in a daily dosage of 0.0007 milligrams prior to bedtime. […] A patient suffers from a sleep disorder. The patient is prescribed a prodrug of doxepin in a daily dosage of 0.1 milligrams prior to bedtime. […] A patient suffers from a sleep disorder. The patient is prescribed a prodrug of doxepin in a daily dosage of 0.0006 milligrams prior to bedtime. […] A patient suffers from a sleep disorder. The patient is prescribed a prodrug of doxepin in a daily dosage of 0.05 milligrams prior to bedtime. […] A patient suffers from a sleep disorder. The patient is prescribed a prodrug of doxepin in a daily dosage of 0.004 milligrams prior to bedtime. […]

[4] = otherwise healthy, no depression, daily dosage 0.009 milligrams prior to bedtime
[5] = otherwise healthy, no depression, daily dosage 0.4 milligrams prior to bedtime

Measured: relief of insomnia

CN(C)CCC=C1c2ccccc2COc2ccccc21 [doxepin, 11-(3-dimethylaminopropylidene)-6,11-dihydrodibenzo-[b,e]-oxepine]
relieves the insomnia: [1]; otherwise healthy, no depression, daily dosage 0.0005 milligrams prior to bedtime | [1]; otherwise healthy, no depression, daily dosage 0.008 milligrams prior to bedtime | [1]; [4] | [1]; otherwise healthy, no depression, daily dosage 0.08 milligrams prior to bedtime | [1]; [5] | [1]; patient also suffers from depression, daily dosage 0.0003 milligrams prior to bedtime | [1]; patient also suffers from depression, daily dosage 0.001 milligrams prior to bedtime | [1]; patient also suffers from depression, daily dosage 0.006 milligrams prior to bedtime | [1]; patient also suffers from depression, daily dosage 0.1 milligrams prior to bedtime | [1]; patient also suffers from depression, daily dosage 0.3 milligrams prior to bedtime | [2]; otherwise healthy, no depression, daily dosage 0.0002 milligrams prior to bedtime | [2]; otherwise healthy, no depression, daily dosage 0.007 milligrams prior to bedtime | [2]; [4] | [2]; otherwise healthy, no depression, daily dosage 0.02 milligrams prior to bedtime | [2]; otherwise healthy, no depression, daily dosage 0.2 milligrams prior to bedtime | [2]; [5] | [2]; patient also suffers from depression, daily dosage 0.0001 milligrams prior to bedtime | [2]; patient also suffers from depression, daily dosage 0.0009 milligrams prior to bedtime | [2]; patient also suffers from depression, daily dosage 0.004 milligrams prior to bedtime | [2]; patient also suffers from depression, daily dosage 0.03 milligrams prior to bedtime | [2]; patient also suffers from depression, daily dosage 0.05 milligrams prior to bedtime | [2]; patient also suffers from depression, daily dosage 0.5 milligram prior to bedtime | [3]
